Measurements: article PMC9394284, “Discovery of Novel Dual Adenosine A2A and A1 Receptor Antagonists with 1H-Pyrazolo[3,4-d]pyrimidin-6-amine Core Scaffold as Anti-Parkinson’s Disease Agents” (Pharmaceuticals, 2022)
pIC50, pKi: −log10 of the molar value.

Key:
[1] = molecular target: T1, hA1 receptor (Homo sapiens, UniProt P30542); test: radioligand binding to human A1 receptors, CHO-K1 membranes, [3H]DPCPX
T1 sequence (P30542 1-326): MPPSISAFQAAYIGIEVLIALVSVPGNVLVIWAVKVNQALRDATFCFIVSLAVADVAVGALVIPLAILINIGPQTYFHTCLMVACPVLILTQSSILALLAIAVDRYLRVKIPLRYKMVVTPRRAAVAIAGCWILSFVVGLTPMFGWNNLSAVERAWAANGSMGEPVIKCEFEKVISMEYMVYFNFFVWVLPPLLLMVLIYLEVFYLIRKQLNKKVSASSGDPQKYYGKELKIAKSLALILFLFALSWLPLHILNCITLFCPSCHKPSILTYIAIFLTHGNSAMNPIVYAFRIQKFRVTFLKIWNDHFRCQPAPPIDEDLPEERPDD
Description: The radioligand-binding assays for adenosine receptors were performed at Eurofins Discovery Services (Panlabs, Taiwan). Briefly, stock solutions of the compounds were prepared in DMSO and further diluted with the incubation buffer to the desired concentration. Final DMSO concentrations in the assay were 1.0%. For adenosine A1 screening, a 10 μg aliquots of membrane preparations from human recombinant CHO-K1 cells stably expressing A1 receptors (CHO-K1-hA1AR clone3, EPDST, R200510) were incubated with 1 nM [^3H]DPCPX in incubation buffer (20 mM HEPES, pH 7.4, 10 mM MgCl2, 100 mM NaCl 1.40 nM) for 90 min at 25 °C. Nonspecific binding was estimated in the presence of 100 μM R(-)-PIA. Membranes were filtered and washed 3 times and the filters were counted to determine specifically bound [^3H]DPCPX. Chemical compounds were screened at 10 μM. For A2A screening, membrane preparations from human recombinant HEK-293 cells stably expressing A2A receptors (PerkinElmer, RBHA2AM) were incubated with 0.05 μM [^3H]CGS-21680 in incubation buffer (50 mM Tris-HCl, pH 7.4, 10 mM MgCl2, 1 mM EDTA, 2 U/mL Adenosine Deaminase) for 90 min at 25 °C. Nonspecific binding was estimated in the presence of 50.0 μM NECA. Membranes were filtered and washed 3 times and the filters were counted to determine [^3H]CGS-21680 specifically bound. For A2B screening, membrane preparations from human recombinant HEK-293 cells stably expressing A2B receptors (PerkinElmer, ES-013-M) were incubated with 1.6 nM [^3H]MRS1754 in incubation buffer (50 mM Tris-HCl, pH 6.5, 5 mM MgCl2, 1 mM EDTA, 0.01 % Bacitracin) for 90 min at 25 °C. Nonspecific binding was estimated in the presence of 100 μM NECA. Membranes were filtered and washed 3 times and the filters were counted to determine [^3H]MRS1754 specifically bound. For A3 screening, membrane preparations from human recombinant CHO-K1 cells stably expressing A3 receptors (PerkinElmer, ES-012-M) were incubated with 0.5 nM [^125I]AB-MECA in incubation buffer (25 mM HEPES, pH 7.4, 5 mM MgCl2, 1 mM CaCl2, 0.1 % BSA) for 60 min at 25 °C. Nonspecific binding was estimated in the presence of 1.0 μM IB-MECA.
IC50 values were determined by a nonlinear, least-squares regression analysis using MathIQ^TM (ID Business Solutions Ltd., Guildford, UK). Where inhibition constants (Ki) were presented, the Ki values were calculated using Cheng and Prusoff equation [18] using the observed IC50 of the compound, the concentration of radioligand employed in the assay, and the historical values for the KD of the ligand (obtained experimentally at Eurofins Panlabs, Inc.). The Hill coefficient (nH), which defines the slope of the competitive binding curve, was calculated using MathIQ^TM.

[2] = test system: Sprague Dawley rats; test: maximum tolerated dose, single oral administration, rat; settings: in vivo, po
Description: (§1) Rat and dog MTD studies were performed at Frontage Laboratories Inc following testing facility’s SOPs. All procedures described were reviewed and approved by the Institutional Animal Care and Use Committee (IACUC) at Frontage Laboratories Inc.
(§2) For rat MTD study, male and female Sprague Dawley rats (Rattus norvegicus) of 8.1~9.6 weeks of age were purchased from Charles River Laboratories, USA and maintained at standard food and water ad libitum in temperature-controlled room with 12 h on-off light cycle before the experiment. Animals were acclimated to the testing facility for at least 6 to 16 days prior to initiation of dosing. Animals received a single dose of 11o in 0.5% methyl cellulose via oral gavage starting from 150 mg/kg dose level (this initial dose level was selected based on available data and the estimated toxicity using EPA’s toxicity estimation software tool (TEST) version 4.2.1) in 10 mL/kg dose volume. Subsequent doses occurred 3 or 4 days following the previous dose and were increased based on findings from the previous dosing(s). The procedure continued until four dosing events occurred. Animals were observed once in the morning and once in the afternoon throughout the study for clinical observations. Body weights were measured on the day prior to dose administration. […]

[3] = as above; settings: both sexes, in vivo, single oral administration, male and female Sprague Dawley rats
Description: as §1, §2

[4] = metabolic stability in cryopreserved mouse hepatocytes
Description: Metabolic stability of 11o was determined in cryopreserved hepatocytes from mice, rats, dogs, monkeys and human according to the SOPs of Frontage Laboratories Inc. Briefly, cryopreserved hepatocytes for pre-clinical animals and for human (BioIVT, Westbury, NY, USA) were thawed in a 37 °C water bath with gentle shaking until ice had almost melted. The suspensions were immediately transferred to a centrifuge tube (50 mL) containing pre-warmed thawing media at 37 °C with gentle handshaking to prevent the cells from settling. Cell suspensions were centrifuged at 50× g and 4 °C for 5 min. The supernatant was discarded and the pellets were resuspended in prewarmed incubation media (5 mL) at 37 °C. The percentage of viable cells in the suspension was determined by Trypan blue staining method to ensure viability of ≥70 %. […] The samples were centrifuged and aliquots of the supernatant were analyzed for parent compounds by LC/MS/MS using suitable multiple reaction monitoring (MRM) transitions. […] The disappearance of 11o and midazolam was monitored by LC/MS/MS (MRM) analysis of the hepatocyte extracts at each time point. The peak area ratio of the analyte to internal standard was obtained for each sample and the rate of disappearance of 11o was assessed by comparing the peak area ratios at various time points to the peak area ratio obtained at t = 0. The t1/2 is obtained (using the linear portion of semi-log plot of the area ratio vs. time) and the CLint values determined using well-stirred model.

[5] = average of duplicate experiments
[6] = CD-1, mouse, cryopreserved hepatocytes in suspension

Cc1cc(Cn2ncc3c(-c4cccc(C#N)c4F)nc(N)nc32)ccc1N [11o, 3-(6-Amino-1-(4-amino-3-methylbenzyl)-1H-pyrazolo[3,4-d]pyrimidin-4-yl)-2-fluorobenzonitrile]
nH (Hill coefficient), A1 [1]: 1.17 | pIC50 [1, 5]: 7.03 | pKi [1, 5]: 7.26 | body weight loss or mortality in rats [2]: no body weight loss or mortality observed | MTD [3]: > 1000 mg/kg | CLint scaled at 1 μM [4, 6]: 115 mL/min/kg | half-life at 1 μM [4, 6]: 1.18 h | hepatocyte CLint at 1 μM [4, 6]: 9.8 µL/min/1e6 cells | Intrinsic Clearance ([4]; mouse hepatocytes, 1 μM 11o): 0.00977 mL/min/10^6 Cells
